Values quoted from earlier work, collected in patent US11590127B2, “Gastro-resistant formulation containing posaconazole” (ALFRED E. TIEFENBACHER (GMBH & CO. KG), priority 2015, dated 2023).

CC[C@@H]([C@H](C)O)n1ncn(-c2ccc(N3CCN(c4ccc(OC[C@@H]5CO[C@@](Cn6cncn6)(c6ccc(F)cc6F)C5)cc4)CC3)cc2)c1=O [Posaconazole]
aqueous solubility: low aqueous solubility | temperature above which it degrades (thermal degradation): above 160 °C
